In patent US20100249234A1, “METHODS OF REDUCING VIRULENCE IN BACTERIA” (UWM RESEARCH FOUNDATION, INC., priority 2007, published 2010):

What was measured:
Type in all cases: cell-based, Dickeya dadantii 3937 (Ech3937)
mrp promoter = test: mrp (reference gene) promoter activity, GFP reporter pmrp, flow cytometry (FACS); settings: MM + 0.1 mM compound
Protocol: (§1) FACS analysis of promoter activity of dspE, hrpA, hrpL, hrpN, and hrpS was carried out as described (Peng et al., 2006). Briefly, the wild-type Ech3937 and the mutant strains carrying the promoter reporter plasmid were grown on LB broth at 28° C. overnight and transferred to appropriate media. For FACS analysis, samples were collected by centrifugation, washed with 1× phosphate buffer saline (PBS) at 13,000 rpm for 1 min, and re-suspended in 1×PBS to ca 10^6 CFU/ml prior to being run in a FACS Calibur flow cytometer (BD Biosciences, CA). Three replicates were performed for each treatment.
(§2) Since OCA and TCA induced the expression of hrpN, the effect of these two phenolic compounds on the expression of hrpA, hrpL, and hrpS was investigated further. […] GFP intensity was determined on gated populations of bacterial cells by flow cytometry and analyzed with the Cell Quest software (BD Biosciences, San Jose, Calif.). The lines labeled “1” stand for the GFP expression control base level of the Ech3937 containing pPROBE-AT vector; lines labeled “2” stand for the promoter activity of hrpS, hrpL, hrpA and hrpN in Ech3937 in MM; lines labeled “3” stand for the promoter activity of Ech3937 in MM supplemented with 0.1 mM OCA; lines labeled “4” stand for the promoter activity of hrpL mutant WPP96 in MM; lines labeled “5” stand for the promoter activity of hrpL mutant WPP96 in MM supplemented with 0.1 mM OCA. Values are representative of at least two experiments. […] Compared with MM alone, the average GFP fluorescence intensity of bacterial cells of Ech3937 (phrpA) was doubled when 0.1 mM of OCA and TCA were added to the medium (Table 4; FIG. 3). […] The mrp, whose protein product has an ATPase conserved domain (2e-06), was used as a reference gene in this study.

rsmB mRNA = test: qRT-PCR relative mRNA level of rsmB; settings: Ech3937 in supplemented MM vs MM alone (normalized to 1)
Protocol: Bacterial strains were grown in MM. Total RNA from the bacterial cells was isolated by using the TRI reagent method (Sigma, Mo.) and treated with Turbo DNA-free DNase kits (Ambion, TX) as described (Peng et al., 2006). An iScript cDNA Synthesis Kit (Bio-Rad, CA) was used to synthesize cDNA from 0.5 μg of treated total RNA. The Real Master Mix (Eppendorf, Westbury, N.Y.) was used for qRT-PCR reaction to quantify the cDNA level of target genes in different samples. The rplU was used as the endogenous control for data analysis. qRT-PCR data were analyzed using Relative Expression Software Tool as described (Pfaffl, M. W., Horgan, G. W., and Dempfle, L. (2002) Relative expression software tool (REST) for group-wise comparison and statistical analysis of relative expression results in real-time PCR. Nucleic Acids Res 30:e36.).

hrpS promoter = hrpS promoter activity, GFP reporter plasmid phrpS, flow cytometry (FACS); settings: MM + 0.1 mM compound
Protocol: as §1, §2

hrpL promoter = hrpL promoter activity, GFP reporter plasmid phrpL, flow cytometry (FACS); settings: MM + 0.1 mM compound
Protocol: as §1, §2

Ech3937 = test: Growth of Ech3937 in MM supplemented with compound; settings: 0.05, 0.1 and 0.2 mM in MM (FIGS. 2A, 2B)
Text: Phenolic compounds constitute an important class of organic substances produced by plants. The phenolic compound SA is a signaling molecule that plays a role in host defenses. OCA and TCA are the biosynthetic precursors of SA and are also reported to induce the expression of defense-related genes in plants. OCA, TCA, and SA were examined to elucidate their effects on the expression of T3SS genes. The expression of the T3SS gene hrpN was examined in MM and MM supplemented with OCA, TCA, and SA, at concentrations of 0.05, 0.1, and 0.2 mM, respectively. FIGS. 2A and 2B show the promoter activities of hrpN in Dickeya dadantii 3937 (Ech3937) grown in MM and MM supplemented with 0.05, 0.1, and 0.2 mM OCA, TCA, and SA at 12 h (FIG. 2A) and 24 h (FIG. 2B) post-inoculation. GFP intensity was determined on gated populations of bacterial cells by flow cytometry and analyzed with the Cell Quest software (BD Biosciences, San Jose, Calif.). The growth of Ech3937 in MM supplemented with different concentrations of OCA, TCA and SA was recorded. Compared with MM alone, the average GFP fluorescence intensity of bacterial cells of Ech3937 (phrpN) was increased approximately 4-fold when 0.05 mM of OCA and TCA were added to the medium (FIGS. 2A, 2B).
The expression of the T3SS gene hrpA was further examined in MM and MM supplemented with PCA at concentrations of 0.001, 0.005, 0.01, 0.05 and 0.1 mM respectively. FIGS. 16A and 16B show the promoter activities of hrpA in Dickeya dadantii 3937 (Ech3937) grown in minimum medium (MM) and MM supplemented with different amount of p-coumaric acid (PCA) at 12 h (FIG. 16A) and 24 h (FIG. 16B) post-inoculation. GFP intensity was determined on gated populations of bacterial cells by flow cytometry and analyzed with the Cell Quest software (BD Biosciences, San Jose, Calif.). The growth of Ech3937 in MM supplemented with different concentrations of PCA was recorded. Compared with MM alone, the average GFP fluorescence intensity of bacterial cells of Ech3937 (phrpA) was reduced more than 4-fold when 0.05 and 0.1 mM of PCA were added to the medium (FIGS. 16A, 16B).

hrpN promoter = hrpN promoter activity, GFP reporter plasmid phrpN, flow cytometry (FACS)
pPROBE-AT vector = test: GFP expression control base level, pPROBE-AT vector, flow cytometry (FACS); settings: MM + 0.1 mM compound, 12 h (Table 4)
Protocol: as §1, §2

hrpA promoter = hrpA promoter activity, GFP reporter plasmid phrpA, flow cytometry (FACS)
Protocol: as §1
To identify potential compounds that repress activation of T3SS, analogs and isomers of TCA and intermediates of salicylic acid and phenypropanoid biosynthesis pathways in plants were further screened for their effect on Ech3937 hrpA expression by flow cytometry (Table 9). A green fluorescent protein (GFP) reporter plasmid phrpA (pProbe-AT derivative with PCR fragment containing hrpA promoter region) was constructed, resulting in a transcriptional fusion of hrpA promoter with GFP gene. Bacterial cells containing phrpA plasmid were grown in MM supplemented with 0.1 mM of each compound. GFP intensity, which is a measurement of hrpA promoter activity, was measured by flow cytometry.

[1] = hrpL mutant WPP96, 12 h (Table 4)
[2] = MM + 0.1 mM compound, 12 h (Table 4)
[3] = hrpL mutant WPP96, MM + 0.1 mM compound, 12 h (Table 4)

Question: `O=C(O)/C=C/c1ccccc1` [TCA, t-cinnamic acid] was tested. Which “mrp expression in Ech3937 (pmrp) compared with MM” value (mrp promoter; 12 h) did it give?
Answer: Its value is “slightly higher mrp expression”.

Question: And the “GFP intensity (Mean Fluorescence Intensity) of Ech3937 (pmrp)” value (mrp promoter; reference gene, 12 h (Table 4))?
Answer: The value was 105 ± 0.3.

Question: And the “rsmB mRNA relative expression ratio” value (rsmB mRNA)?
Answer: The value was 1.58.

Question: What about the “GFP intensity of Ech3937 (phrpS) compared with MM alone” value (hrpS promoter; 12 h) of the same compound?
Answer: The value was “slightly lower GFP intensity”.

Question: And the “GFP intensity (Mean Fluorescence Intensity) of Ech3937 (phrpS)” value (hrpS promoter; 12 h (Table 4))?
Answer: The value was 54 ± 2.

Question: And the “GFP intensity (Mean Fluorescence Intensity) of WPP96 (phrpS)” value (hrpS promoter; [1])?
Answer: Its value is 360 ± 16.

Question: And the “promoter activity of hrpL compared with MM alone” value (hrpL promoter; Ech3937, 12 h)?
Answer: Its value is “slightly higher promoter activity”.

Question: And the “GFP intensity (Mean Fluorescence Intensity) of Ech3937 (phrpL)” value (hrpL promoter; 12 h (Table 4))?
Answer: The value was 19 ± 1.

Question: And the “GFP intensity (Mean Fluorescence Intensity) of WPP96 (phrpL)” value (hrpL promoter; [1])?
Answer: Its value is 331 ± 27.

Question: And the “bacterial growth of Ech3937 in supplemented MM” value (Ech3937)?
Answer: The value was “No reduction of bacterial growth”.

Question: And the “increase of average GFP fluorescence intensity of Ech3937 (phrpN) compared with MM alone” value (hrpN promoter; 0.05 mM compound added to MM, 12 h and 24 h (FIGS. 2A, 2B))?
Answer: Its value is “approximately 4 fold”.

Question: What about the “induction of hrpN expression in Ech3937 and in hrpX (WPP67), hrpY (WPP92), hrpS (WPP90) mutants” value (hrpN promoter; 0.1 mM compound in MM, 12 h (FIG. 5)) of the same compound?
Answer: Its value is “induced the expression of hrpN in Ech3937, but not in hrpX, hrpY, and hrpS mutants”.

Question: And the “GFP Intensity of Ech3937 (phrpN)” value (hrpN promoter; MM + 0.2 μM compound, 12 h)?
Answer: Its value is 65.1 ± 6.8.

Question: What about the “GFP Intensity of Ech3937 (phrpN)” value (hrpN promoter; MM + 0.2 μM compound, 24 h) of the same compound?
Answer: The value was 163 ± 25.

Question: And the “GFP Intensity of Ech3937 (phrpN)” value (hrpN promoter; MM + 0.5 μM compound, 12 h)?
Answer: Its value is 73.4 ± 4.2.

Question: And the “GFP Intensity of Ech3937 (phrpN)” value (hrpN promoter; MM + 0.5 μM compound, 24 h)?
Answer: Its value is 158 ± 20.

Question: And the “GFP Intensity of Ech3937 (phrpN)” value (hrpN promoter; MM + 5 μM compound, 12 h)?
Answer: The value was 134 ± 5.6.

Question: And the “GFP Intensity of Ech3937 (phrpN)” value (hrpN promoter; MM + 5 μM compound, 24 h)?
Answer: Its value is 266 ± 14.

Question: And the “GFP Intensity of Ech3937 (phrpN)” value (hrpN promoter; MM + 10 μM compound, 12 h)?
Answer: The value was 147 ± 18.

Question: And the “GFP Intensity of Ech3937 (phrpN)” value (hrpN promoter; MM + 10 μM compound, 24 h)?
Answer: The value was 284 ± 12.

Question: And the “GFP intensity (Mean Fluorescence Intensity) of Ech3937 (phrpN)” value (hrpN promoter; [2])?
Answer: The value was 103 ± 1.

Question: What about the “GFP intensity (Mean Fluorescence Intensity) of WPP96 (phrpN)” value (hrpN promoter; [3]) of the same compound?
Answer: The value was 3.3 ± 0.

Question: And the “GFP intensity (Mean Fluorescence Intensity) of Ech3937 (pPROBE-AT)” value (pPROBE-AT vector)?
Answer: The value was 1.9 ± 0.

Question: What about the “average GFP fluorescence intensity of Ech3937 (phrpA) compared with MM alone” value (hrpA promoter; 0.1 mM compound, 12 h) of the same compound?
Answer: The value was “doubled”.

Question: What about the “expression of hrpA, GFP intensity (Mean Fluorescence Intensity), Ech3937 carrying phrpA” value (“expression of hrpA, GFP intensity” below) (hrpA promoter; MM + 0.1 mM compound, 6 h (Table 9)) of the same compound?
Answer: Its value is 22.3 ± 2.1.

Question: And the “GFP intensity (Mean Fluorescence Intensity) of Ech3937 (phrpA)” value (hrpA promoter; [2])?
Answer: The value was 78 ± 0.

Question: What about the “expression of hrpA, GFP intensity” value (hrpA promoter; MM + 0.1 mM compound, 12 h (Table 9)) of the same compound?
Answer: Its value is 133.9 ± 12.9.

Question: What about the “expression of hrpA, GFP intensity” value (hrpA promoter; MM + 0.1 mM compound, 24 h (Table 9)) of the same compound?
Answer: The value was 203.7 ± 16.1.

Question: What about the “GFP intensity (Mean Fluorescence Intensity) of WPP96 (phrpA)” value (hrpA promoter; [3]) of the same compound?
Answer: The value was 6.2 ± 0.6.
